Like-named read-outs stand apart in the source and are kept apart here.
Tests used:
[1] = molecular target: recombinant human GGPPS (Homo sapiens (Human), UniProt O95749); assay: In vitro hGGPPS inhibition assay; assay type: biochemical; settings: for IC50: wild-type hGGPPS enzyme, average of n ≥ 3 determinations; for selectivity improved for inhibiting hGGPPS vs hFPPS: starting from the original hits, e.g. C-5
[2] = molecular target: T1, hFPPS (Homo sapiens (Human), UniProt P14324); assay: biochemical
[3] = molecular target: T1, hFPPS; settings: read-out: hFPPS IC50
[4] = tested on: JJN3; assay: MM cell viability assay (MTS proliferation); assay type: cell-based; settings: Homo sapiens, JJN-3; 72 hours, average of n ≥ 8 determinations; read-out: MM cells EC50, JJN3
Protocol: (§1) Various MM cancer cell lines (Table 3 and FIGS. 5 and 6) were cultured in RPMI-1640 medium supplemented with 10% fetal bovine serum (Gibco BRL, Gaithersburg, Md.) supplemented with 2 mM L-glutamine in a 5% CO2 atmosphere at 37° C. EC50 values for each target compound were determined using a commercial MTS proliferation assay (Promega, Madison, Wis.) following the manufacturer's instructions. Briefly, compounds were diluted directly into culture medium and then applied to cells that were seeded in 96-well plates at a density 5,000 cells per well. Cells were incubated with the indicated final concentration of compound in a total media volume of 100 μl/well for 72 hours prior to the addition of the MTS reagent. Plates were incubated at 37° C. in the presence 5% CO2 for 2 hours prior to recording OD490 using a Tecan Infinite M200Pro microplate reader. Results were analyzed to obtain dose-response curves and EC50 calculations using GraphPad PRISM version 5 for the MacIntosh (GraphPad Software, San Diego, Calif.).

[5] = tested on: RPMI-8226; assay: MM cell viability assay (MTS proliferation); assay type: cell-based; settings: Homo sapiens, 72 hours, average of n ≥ 8 determinations, read-out: MM cells EC50, RPMI-8226
[6] = tested on: SH-SYSY neurons; assay: LDH toxicity assay in immortalized human neurons; assay type: cell-based
[7] = tested on: phosphorylated Tau protein (P-Tau); assay: Phosphorylation of the tau protein in immortalized human neurons; assay type: cell-based; settings: immortalized human neurons (SH-SYSY)
[8] = tested on: KMS28PE; assay: MM cell viability assay (MTS proliferation); assay type: cell-based; settings: Homo sapiens, KMS-28PE; 72 hours, average of n ≥ 8 determinations; read-out: MM cells EC50, KMS28PE
Protocol: as §1

[9] = tested on: chronic myelogenous leukemia (K562) cells; assay: Cancer cell viability; assay type: cell-based, human; settings: compared to zolendronate (ZOL), FIG. 4
Protocol: (§2) NCI-ADR-RES cells were obtained from National Cancer Institute (NCI) and all other cell lines were obtained from the American Type Culture Collection (ATCC). NHBE cells were maintained in Bronchial Epithelial Cell Growth Medium (BEGM) supplemented with 10% FBS (Multicell) and 2 mM L-glutamine (Gibco/Life Technologies). All other cells were maintained in culture using Roswell Park Memorial Institute (RPMI) 1640 media supplemented with 10% FBS (Multicell), Penicillin (100 U/mL), Streptomycin (100 ug/mL) and 2 mM L-glutamine (Gibco/Life Technologies). Cells were plated in logarithmic growth phase in each well of clear bottom multiwell plates and cultured 16-24 h before drug treatment. […]
(§3) Cell viability was determined by cellular quantitation of adenosine triphosphate (ATP) using the CellTiter-Glo Luminescent Cell Viability Assay Kit (Promega Corporation, Cat. No. G7571). Briefly, the CellTiter-Glo «one-mix-measure» reagent, containing both the cell permeabilizing agent and the Ultra-Glo luciferase, was added to the cell culture according to manufacturers' instructions allowing the free ATP to be released from viable cells and subsequently converted into luminescence. The luminescence generated in the reaction is directly proportional to cell viability and was quantified in a luminometer (PHERAstar FS, BMG Labtech) […]

[10] = tested on: acute monocytic leukemia (MOLM-13) cells; assay: Cancer cell viability; assay type: cell-based, human; settings: compared to zolendronate (ZOL), FIG. 4
Protocol: as §2, §3

[11] = tested on: multiple myeloma cell line RPMI-8226; assay: Apoptosis assay in multiple myeloma cells (flow cytometry); assay type: cell-based, human; settings: 100 nM, 500 nM, and 1 μM, 72 h, FIG. 6
Protocol: To determine the ability of compounds of the application to induce MM cell lines to undergo apoptosis, cells were seeded at a density of 7.5×10^5/mL in medium supplemented with 10% FBS with increasing concentrations of compound (i.e. compound that inhibits hGGPPS) or vehicle alone. Following a 72 h incubation, apoptosis was determined by double staining with APC Annexin V (BD Biosciences, Mississauga ON) and eFluor 780 Viability dye (ThermoFisher Scientific) according to the manufacturer's directions. Stained samples were acquired on a BD FACSCanto II instrument (BD Biosciences, Mississauga ON) and post-acquisition analyses were performed using FlowJo (V10) software. Apoptosis of multiple myeloma cells was also determined by flow cytometry by double staining cells with Allophycocyanin (APC) conjugated Annexin V and a V450 conjugated Mouse Anti-Human CD138 monoclonal antibody, following the manufacturer's instructions (BD Biosciences, Mississauga ON).

[12] = in vitro; settings: human, microsomes
[13] = tested on: normal human bronchial cells (NHBE); assay: Cell viability (CellTiter-Glo), normal cells; assay type: cell-based; settings: compared to doxorubicin, FIG. 3a
Protocol: as §2, §3

[14] = in vitro; settings: male, CD-1, mouse, microsomes
[15] = in vitro; settings: Sprague-Dawley, rat, microsomes
[16] = Lipophilicity by C-18 reversed phase HPLC relative retention; settings: versus zolodronic acid

T1 sequence (P14324 whole entry): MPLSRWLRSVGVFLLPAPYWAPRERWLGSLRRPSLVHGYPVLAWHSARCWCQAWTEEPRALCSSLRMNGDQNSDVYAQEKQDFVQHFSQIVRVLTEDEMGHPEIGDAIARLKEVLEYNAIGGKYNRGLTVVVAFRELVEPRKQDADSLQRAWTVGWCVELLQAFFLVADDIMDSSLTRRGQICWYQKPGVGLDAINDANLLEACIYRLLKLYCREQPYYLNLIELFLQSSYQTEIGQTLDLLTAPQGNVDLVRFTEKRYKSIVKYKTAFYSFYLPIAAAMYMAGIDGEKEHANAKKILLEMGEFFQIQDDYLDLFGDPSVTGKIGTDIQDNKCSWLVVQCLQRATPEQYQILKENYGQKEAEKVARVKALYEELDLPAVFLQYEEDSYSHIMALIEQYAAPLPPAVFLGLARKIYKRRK
recombinant human GGPPS, sequence (O95749 whole entry): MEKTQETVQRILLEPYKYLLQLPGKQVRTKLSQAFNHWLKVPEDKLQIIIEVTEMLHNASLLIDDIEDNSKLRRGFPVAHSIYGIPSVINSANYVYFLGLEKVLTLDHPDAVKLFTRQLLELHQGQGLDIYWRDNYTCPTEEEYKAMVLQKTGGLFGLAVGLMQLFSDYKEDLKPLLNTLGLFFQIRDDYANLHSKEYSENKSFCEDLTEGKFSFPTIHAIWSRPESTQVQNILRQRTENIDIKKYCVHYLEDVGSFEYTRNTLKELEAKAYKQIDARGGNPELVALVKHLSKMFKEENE

Ratio of hFPPS IC50 vs hGGPPS IC50 [1] | IC50 [1] | IC50 [3] | EC50 [5] | Structure (SMILES) | EC50 [4] | EC50 [8] | also measured
12 | 0.085 µM | 1 µM | 0.38 µM | COc1ccc(C(=O)Nc2cccc(-c3nc(NC(P(=O)(O)O)P(=O)(O)O)c4ccsc4n3)c2)cc1 [Compound I-5, (((2-(3-(4-methoxybenzamido)phenyl)thieno[2,3-d]pyrimidin-4-yl)amino)methylene)bis(phosphonic acid)] | 1.3 µM | 1.4 µM | LDH Toxicity Assay (relative toxicity compared to the control samples) [6]: None observed; Reduction in P-Tau/Total-tau protein [7]: 43%
57 | 0.053 µM | 3 µM | 0.11 µM | O=C(Nc1ccccc1)c1cccc(-c2nc(NC(P(=O)(O)O)P(=O)(O)O)c3ccsc3n2)c1 [Compound I-6, (((2-(3-(phenylcarbamoyl)phenyl)thieno[2,3-d]pyrimidin-4-yl)amino)methylene)bis(phosphonic acid)] | 0.34 µM | 0.7 µM | blocking viability of cancer cells [9]: more effective; blocking viability of cancer cells [10]: more effective; selectivity improved for inhibiting hGGPPS vs hFPPS [1]: ~55 fold
31 | 0.064 µM | 2 µM | 0.1 µM | O=C(Nc1cccc(-c2nc(NC(P(=O)(O)O)P(=O)(O)O)c3ccsc3n2)c1)c1ccccc1 [Compound I-13] | 0.5 µM | 0.55 µM | selectivity improved for inhibiting hGGPPS vs hFPPS [1]: approximately 30 fold
 |  |  | 0.12 µM | Cc1ccc(C(=O)Nc2cccc(-c3nc(NC(P(=O)(O)O)P(=O)(O)O)c4ccsc4n3)c2)cc1 [Compound I-18, (((2-(3-(4-methylbenzamido)phenyl)thieno[2,3-d]pyrimidin-4-yl)amino)methylene)bis(phosphonic acid)] | 0.6 µM | 0.62 µM | IC50 [2]: 2.4 µM
 | 0.085 µM |  | 0.2 µM | COc1ccc(NC(=O)c2cccc(-c3nc(NC(P(=O)(O)O)P(=O)(O)O)c4sccc4n3)c2)cc1F [Compound I-42, (((2-(3-((3-fluoro-4-methoxyphenyl)carbamoyl)phenyl)thieno[3,2-d]pyrimidin-4-yl)amino)methylene)bis(phosphonic acid)] |  |  | 
 | 0.065 µM |  | 0.14 µM | COc1ccc(NC(=O)c2cccc(-c3nc(NC(P(=O)(O)O)P(=O)(O)O)c4ncsc4n3)c2)cc1F [Compound I-43] |  |  | 

Further lines, the compound ahead of its results:

Structure (SMILES) | Ratio of hFPPS IC50 vs hGGPPS IC50 [1] | IC50 [1] | IC50 [3] | EC50 [5] | EC50 [4] | EC50 [8] | also measured
O=P(O)(O)C(Nc1nc(-c2ccccc2)nc2sccc12)P(=O)(O)O [Compound C-5, reference compound] | ~7 | 0.082 µM |  |  |  |  | IC50 [2]: 0.54 µM
O=P(O)(O)C(Nc1ncnc2sc(-c3ccccc3)cc12)P(=O)(O)O [Compound C-10, reference compound] |  |  | 0.2 µM |  |  |  | 
O=P(O)(O)C(Nc1ncnc2sc(-c3ccc(C(F)(F)F)cc3)cc12)P(=O)(O)O [Compound C-12, reference compound] | >4 × 10^−5 | ~10000 µM | 0.023 µM | > 50 µM | > 10 µM |  | 
O=P(O)(O)C(Nc1ncnc2sc(-c3ccc(OC4CC4)cc3)cc12)P(=O)(O)O [Compound C-13, reference compound] | >7 × 10^−5 | ~10000 µM | 0.014 µM | > 50 µM | > 10 µM |  | 
COC(C(=O)Nc1cccc(-c2nc(NC(P(=O)(O)O)P(=O)(O)O)c3ccsc3n2)c1)c1ccccc1 (stereo not drawn) [Compound I-24] |  |  |  |  |  |  | apoptosis [11]: induce apoptosis
COc1ccc(NC(=O)c2cccc(-c3nc(NC(P(=O)(O)O)P(=O)(O)O)c4ccsc4n3)c2)cc1F [Compound I-37, (((2-(3-((3-fluoro-4-methoxyphenyl)carbamoyl)phenyl)thieno[2,3-d]pyrimidin-4-yl)amino)methylene)bis(phosphonic acid)] |  |  |  | 0.15 µM | 0.51 µM | 0.17 µM | half-life [12]: 2.57 h; toxicity to normal human bronchial cells [13]: less toxic; half-life [14]: 2.13 h; half-life [15]: 3.12 h; difference in relative retention time on C-18 reversed phase HPLC column (lipophilicity) [16]: more than 7 min
O=P(O)(O)C(O)(Cc1cccnc1)P(=O)(O)O [RIS, Risedronic acid, reference compound] |  |  |  |  | 10 µM | 10.6 µM | 
O=P(O)(O)C(O)(Cn1ccnc1)P(=O)(O)O [ZOL, zoledronic acid, reference compound] |  |  |  |  | 5 µM | 6.4 µM | Reduction in P-Tau/Total-tau protein [7]: 50%
